Source: US12264156B2, “Compounds and pharmaceutical compositions thereof for the treatment of diseases” (GALAPAGOS NV, priority 2018, dated 2025)
pIC50: −log10 of the molar value.

Key:
Assay type in all cases: biochemical
Conditions in all cases: ADP-Glo SIK kinase assay
SIK1 = molecular target: T1, SIK1 (Homo sapiens, UniProt P57059); test: ADP-Glo kinase assay, SIK1
T1 construct: purchased Carna Biosciences 02-131
Description: (§1) The ADP-Glo™ kinase assay is a luminescent technology assay which measures the ADP formed from a kinase reaction. […] In a second step the kinase reactions are terminated and all the remaining ATP is depleted. In a final step the ADP is converted into ATP and this newly synthesized ATP is measured by using a luciferase/luciferin reaction. The generated light is measured using an Envision plate reader, wherein the luminescent signal obtained positively correlates with the kinase activity.
(§2) 1% DMSO and 10 μM staurosporine final concentrations are used as negative and positive controls.
(§3) 2 μL enzyme-substrate mixture is added to the assay plates.
(§4) The reaction is started by adding 2 μL diluted ATP on the assay plates. Plates are centrifuged for a few seconds at 1000 rpm and gently shaken for 2 min followed by an incubation at RT for 120 min.
(§5) The reactions are stopped and the unconsumed ATP is depleted by adding 5 μL ADP-Glo Reagent (Promega, Cat #V912B) to the reaction. The plates are centrifuged for a few seconds at 1000 rpm and incubated at RT for 40 min (ATP depletion).
(§6) The ADP is converted to ATP and luciferase and luciferin is introduced to detect ATP by adding 10 μL Kinase Detection Reagent (Promega, Cat #V913B+V914B) to the reaction. The plates are centrifuged for a few seconds at 1000 rpm and incubated at RT for 30 min (ADP detection).
(§7) Luminescence is measured on an Envision plate reader (PerkinElmer Inc.).

SIK3 = molecular target: T2, SIK3 (Homo sapiens, UniProt Q9Y2K2); test: ADP-Glo kinase assay, SIK3
T2 construct: purchased SignalChem S12-11G-100
T2 sequence (Q9Y2K2 whole entry): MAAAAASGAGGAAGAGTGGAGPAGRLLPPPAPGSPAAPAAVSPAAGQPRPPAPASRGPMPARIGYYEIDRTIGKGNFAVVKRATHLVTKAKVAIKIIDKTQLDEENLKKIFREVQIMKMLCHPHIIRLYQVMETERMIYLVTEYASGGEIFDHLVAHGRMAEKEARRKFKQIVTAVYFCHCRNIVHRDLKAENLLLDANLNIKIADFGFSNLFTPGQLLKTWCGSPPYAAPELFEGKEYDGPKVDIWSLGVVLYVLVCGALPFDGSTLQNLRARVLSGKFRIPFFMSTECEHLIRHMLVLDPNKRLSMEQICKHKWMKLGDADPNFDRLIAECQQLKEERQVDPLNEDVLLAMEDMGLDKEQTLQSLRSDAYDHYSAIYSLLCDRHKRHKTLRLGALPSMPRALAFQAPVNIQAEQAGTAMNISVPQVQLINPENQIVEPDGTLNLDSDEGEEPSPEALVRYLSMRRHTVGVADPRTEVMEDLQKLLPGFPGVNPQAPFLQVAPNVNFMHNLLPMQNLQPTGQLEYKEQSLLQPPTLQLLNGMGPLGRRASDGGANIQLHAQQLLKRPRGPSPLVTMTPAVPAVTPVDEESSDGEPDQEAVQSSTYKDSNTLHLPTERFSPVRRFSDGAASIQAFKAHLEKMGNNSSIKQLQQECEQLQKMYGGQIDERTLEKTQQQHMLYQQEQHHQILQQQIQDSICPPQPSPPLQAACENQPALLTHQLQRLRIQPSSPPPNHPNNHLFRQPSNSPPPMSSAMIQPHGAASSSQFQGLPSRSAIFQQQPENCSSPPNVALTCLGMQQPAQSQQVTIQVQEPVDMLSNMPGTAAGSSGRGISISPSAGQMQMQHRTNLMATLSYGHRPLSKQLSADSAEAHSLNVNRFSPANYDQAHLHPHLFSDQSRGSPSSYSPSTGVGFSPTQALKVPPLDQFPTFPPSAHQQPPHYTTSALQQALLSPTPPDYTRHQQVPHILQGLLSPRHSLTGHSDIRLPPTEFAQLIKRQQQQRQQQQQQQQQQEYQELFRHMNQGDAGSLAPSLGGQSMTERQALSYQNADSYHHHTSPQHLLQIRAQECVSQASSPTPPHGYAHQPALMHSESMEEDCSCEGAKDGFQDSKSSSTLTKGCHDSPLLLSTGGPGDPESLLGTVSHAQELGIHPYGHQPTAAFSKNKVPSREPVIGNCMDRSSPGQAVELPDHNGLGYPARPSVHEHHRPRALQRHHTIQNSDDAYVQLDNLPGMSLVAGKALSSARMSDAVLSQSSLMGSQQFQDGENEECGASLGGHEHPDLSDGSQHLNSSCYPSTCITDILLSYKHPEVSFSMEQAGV
Description: as §1, §2, §3, §4, §5, §6, §7

SIK2 = molecular target: T3, SIK2 (Homo sapiens, UniProt Q9H0K1); test: ADP-Glo kinase assay, SIK2
T3 construct: purchased ThermoFisher Scientific PV4792
T3 sequence (Q9H0K1 whole entry): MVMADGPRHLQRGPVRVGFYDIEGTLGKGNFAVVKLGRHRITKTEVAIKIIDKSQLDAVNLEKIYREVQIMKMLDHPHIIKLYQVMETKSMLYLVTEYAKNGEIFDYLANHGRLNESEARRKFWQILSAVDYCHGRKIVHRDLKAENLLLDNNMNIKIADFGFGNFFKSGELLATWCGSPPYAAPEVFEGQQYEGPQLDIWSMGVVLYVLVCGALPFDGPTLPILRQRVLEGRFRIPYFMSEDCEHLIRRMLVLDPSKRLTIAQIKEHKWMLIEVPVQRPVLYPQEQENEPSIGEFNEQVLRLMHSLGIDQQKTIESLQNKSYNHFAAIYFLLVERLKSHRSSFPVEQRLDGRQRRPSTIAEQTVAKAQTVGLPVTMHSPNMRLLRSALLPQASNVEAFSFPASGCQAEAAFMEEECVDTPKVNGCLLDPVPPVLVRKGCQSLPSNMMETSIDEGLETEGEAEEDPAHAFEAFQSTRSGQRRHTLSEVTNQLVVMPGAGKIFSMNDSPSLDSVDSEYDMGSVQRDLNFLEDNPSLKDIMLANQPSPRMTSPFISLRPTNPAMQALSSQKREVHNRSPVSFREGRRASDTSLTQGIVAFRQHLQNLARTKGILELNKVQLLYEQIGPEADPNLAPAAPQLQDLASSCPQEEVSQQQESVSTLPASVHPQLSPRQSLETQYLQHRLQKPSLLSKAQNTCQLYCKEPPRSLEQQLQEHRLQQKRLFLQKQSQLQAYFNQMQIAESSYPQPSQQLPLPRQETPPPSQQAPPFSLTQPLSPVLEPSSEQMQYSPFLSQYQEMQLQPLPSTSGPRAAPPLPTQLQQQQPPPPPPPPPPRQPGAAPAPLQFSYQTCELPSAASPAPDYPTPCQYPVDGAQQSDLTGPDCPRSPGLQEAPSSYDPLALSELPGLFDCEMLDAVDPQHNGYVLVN
Description: as §1, §2, §3, §4, §5, §6, §7

T1 sequence (P57059 whole entry): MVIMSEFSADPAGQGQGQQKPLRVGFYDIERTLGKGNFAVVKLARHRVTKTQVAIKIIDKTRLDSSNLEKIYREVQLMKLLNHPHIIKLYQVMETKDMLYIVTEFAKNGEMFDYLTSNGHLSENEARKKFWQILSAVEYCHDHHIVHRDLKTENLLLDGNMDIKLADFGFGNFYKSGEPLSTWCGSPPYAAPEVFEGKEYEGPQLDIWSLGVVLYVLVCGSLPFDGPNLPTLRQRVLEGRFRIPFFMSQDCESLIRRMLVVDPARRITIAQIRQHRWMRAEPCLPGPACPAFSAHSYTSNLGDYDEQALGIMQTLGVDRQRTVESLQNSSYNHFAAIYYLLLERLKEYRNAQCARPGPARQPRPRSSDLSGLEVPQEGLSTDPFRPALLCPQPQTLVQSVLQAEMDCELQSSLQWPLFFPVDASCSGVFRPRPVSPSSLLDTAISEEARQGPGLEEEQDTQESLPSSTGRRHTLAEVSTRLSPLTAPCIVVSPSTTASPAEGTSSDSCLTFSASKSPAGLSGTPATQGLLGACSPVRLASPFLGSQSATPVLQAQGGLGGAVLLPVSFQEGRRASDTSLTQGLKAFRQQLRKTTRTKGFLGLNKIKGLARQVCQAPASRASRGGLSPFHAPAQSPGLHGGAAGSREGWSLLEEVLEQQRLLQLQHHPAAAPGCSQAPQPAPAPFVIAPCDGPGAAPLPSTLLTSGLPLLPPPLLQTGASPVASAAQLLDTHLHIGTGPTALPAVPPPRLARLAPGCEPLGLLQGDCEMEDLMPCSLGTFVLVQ

pIC50 (SIK1) | pIC50 (SIK3) | pIC50 (SIK2) | SMILES
7.00 to 8.00 | 8.00 to 11.00 | 8.00 to 11.00 | COc1cc(-c2cnc3cc(OCCCN4CCn5ccnc5C4)ccn23)cc(OC(F)F)c1C(=O)NC1CC1 [compound 312, N-cyclopropyl-2-(difluoromethoxy)-4-[7-[3-(6,8-dihydro-5H-imidazo[1,2-a]pyrazin-7-yl)propoxy]imidazo[1,2-a]pyridin-3-yl]-6-methoxy-benzamide]
7.00 to 8.00 | 8.00 to 11.00 | 8.00 to 11.00 | COc1cc(-c2cnc3cc(OCCOCCN4CCOCC4)ccn23)cc(OC(F)F)c1C(=O)NC1CC1 [compound 306, N-cyclopropyl-2-(difluoromethoxy)-6-methoxy-4-[7-[2-(2-morpholinoethoxy)ethoxy]imidazo[1,2-a]pyridin-3-yl]benzamide]
7.00 to 8.00 | 8.00 to 11.00 | 8.00 to 11.00 | COc1cc(-c2cnc3cc(OCC4CCCN4)ccn23)cc(OC(F)F)c1C(=O)NC1CC1 (stereo not drawn) [Cpd 154, N-cyclopropyl-2-(difluoromethoxy)-6-methoxy-4-[7-(pyrrolidin-2-ylmethoxy)imidazo[1,2-a]pyridin-3-yl]benzamide]
< 6.30 | 6.30 to 7.00 | 6.30 to 7.00 | COc1cc(-c2cnc3cc(OC[C@H]4COCCO4)ccn23)cnc1C(=O)NCC(F)(F)F [compound 265, 5-[7-[[(2R)-1,4-dioxan-2-yl]methoxy]imidazo[1,2-a]pyridin-3-yl]-3-methoxy-N-(2,2,2-trifluoroethyl)pyridine-2-carboxamide]
7.00 to 8.00 | 8.00 to 11.00 | 8.00 to 11.00 | COc1cc(-c2cnc3cc(OCC4CCCCN4)ccn23)cc(OC(F)F)c1C(=O)NC1CC1 (stereo not drawn) [compound 119, N-cyclopropyl-2-(difluoromethoxy)-6-methoxy-4-[7-(2-piperidylmethoxy)imidazo[1,2-a]pyridin-3-yl]benzamide]
8.00 to 11.00 | 8.00 to 11.00 | 8.00 to 11.00 | COc1cc(-c2cnc3cc(OCCC4CCCCN4C)ccn23)cc(OC(F)F)c1C(=O)NC1CC1 (stereo not drawn) [compound 24, N-cyclopropyl-2-(difluoromethoxy)-6-methoxy-4-[7-[2-(1-methyl-2-piperidyl)ethoxy]imidazo [1,2-a]pyridin-3-yl]benzamide]
6.30 to 7.00 | 8.00 to 11.00 | 7.00 to 8.00 | COc1cc(-c2cnc3cc(OCC(C)(C)N4CCOCC4)ccn23)cc(OC(F)F)c1C(=O)NC1CC1 [compound 11, N-cyclopropyl-2-(difluoromethoxy)-6-methoxy-4-[7-(2-methyl-2-morpholino-propoxy)imidazo[1,2-a]pyridin-3-yl]benzamide]
7.00 to 8.00 | 8.00 to 11.00 | 7.00 to 8.00 | COc1cc(-c2cnc3cc(OCC4CCCCN4CC#N)ccn23)cc(OC(F)F)c1C(=O)NC1CC1 (stereo not drawn) [compound 269, 4-[7-[[1-(cyanomethyl)-2-piperidyl]methoxy]imidazo [1,2-a]pyridin-3-yl]-N-cyclopropyl-2-(difluoromethoxy)-6-methoxy-benzamide]
6.30 to 7.00 | 8.00 to 11.00 | 6.30 to 7.00 | COc1cc(-c2cnc3cc(OC4CCOCC4)ccn23)cc(OC(F)F)c1C(=O)NC1CC1 [compound 1, N-cyclopropyl-2-(difluoromethoxy)-6-methoxy-4-(7-tetrahydropyran-4-yloxyimidazo[1,2-a]pyridin-3-yl)benzamide]
7.00 to 8.00 | 8.00 to 11.00 | 8.00 to 11.00 | COc1cc(-c2cnc3cc(OCCC4CC(F)(F)C4)ccn23)cc(OC(F)F)c1C(=O)NC1CC1 [compound 76, N-cyclopropyl-4-[7-[2-(3,3-difluorocyclobutyl)ethoxy]imidazo[1,2-a]pyridin-3-yl]-2-(difluoromethoxy)-6-methoxy-benzamide]

Continued, compound first:

SMILES | pIC50 (SIK1) | pIC50 (SIK3) | pIC50 (SIK2)
COc1cc(-c2cnc3cc(OCCN(C)c4ncccn4)ccn23)cc(OC(F)F)c1C(=O)NC1CC1 [compound 238, N-cyclopropyl-2-(difluoromethoxy)-6-methoxy-4-[7-[2-[methyl(pyrimidin-2-yl)amino]ethoxy]imidazo [1,2-a]pyridin-3-yl]benzamide] | 8.00 to 11.00 | 8.00 to 11.00 | 8.00 to 11.00
COc1cc(-c2cnc3cc(OC[C@H]4CNCC[C@@H]4O)ccn23)cc(OC(F)F)c1C(=O)NC1CC1 (racemic) [Cpd 373, N-cyclopropyl-2-(difluoromethoxy)-4-[7-[[(3R,4S)-4-hydroxy-3-piperidyl]methoxy]imidazo [1,2-a]pyridin-3-yl]-6-methoxy-benzamide/ N-cyclopropyl-2-(difluoromethoxy)-4-[7-[[(3S,4R)-4-hydroxy-3-piperidyl]methoxy]imidazo [1,2-a]pyridin-3-yl]-6-methoxy-benzamide mixture] | 7.00 to 8.00 | 8.00 to 11.00 | 8.00 to 11.00
CCOC(=O)C1CCCN(CCCOc2ccn3c(-c4cc(OC)c(C(=O)NC5CC5)c(OC(F)F)c4)cnc3c2)C1 (stereo not drawn) [compound 395, ethyl 1-[3-[3-[4-(cyclopropylcarbamoyl)-3-(difluoromethoxy)-5-methoxy-phenyl]imidazo[1,2-a]pyridin-7-yl]oxypropyl]piperidine-3-carboxylate] | 7.00 to 8.00 | 8.00 to 11.00 | 8.00 to 11.00
COc1cc(-c2cnc3cc(OCCN4CCOCC4)ccn23)cc2cc[nH]c(=O)c12 [compound 210, 8-methoxy-6-[7-(2-morpholinoethoxy)imidazo [1,2-a]pyridin-3-yl]-2H-isoquinolin-1-one] | 7.00 to 8.00 | 7.00 to 8.00 | 8.00 to 11.00
COc1cc(-c2cnc3cc(OCCCN4CC5(CC(O)C5)C4)ccn23)cc(OC(F)F)c1C(=O)NC1CC1 [compound 297, N-cyclopropyl-2-(difluoromethoxy)-4-[7-[3-(6-hydroxy-2-azaspiro[3.3]heptan-2-yl)propoxy]imidazo[1,2-a]pyridin-3-yl]-6-methoxy-benzamide] | 7.00 to 8.00 | 8.00 to 11.00 | 8.00 to 11.00
COc1cc(-c2cnc3cc(OCC4(C)CN(C(=O)OC(C)(C)C)C4)ccn23)cc(OC(F)F)c1C(=O)NC1CC1 [Cpd 188, tert-butyl 3-[[3-[4-(cyclopropylcarbamoyl)-3-(difluoromethoxy)-5-methoxy-phenyl]imidazo[1,2-a]pyridin-7-yl]oxymethyl]-3-methyl-azetidine-1-carboxylate] | 7.00 to 8.00 | 8.00 to 11.00 | 8.00 to 11.00
COc1cc(-c2cnc3cc(Oc4ccccn4)ccn23)cc(OC(F)F)c1C(=O)NC1CC1 [compound 145, N-cyclopropyl-2-(difluoromethoxy)-6-methoxy-4-[7-(2-pyridyloxy)imidazo[1,2-a]pyridin-3-yl]benzamide] | 6.30 to 7.00 | 7.00 to 8.00 | 7.00 to 8.00
COc1cc(-c2cnc3cc(OCC4CCN(C)C4)ccn23)cc(OC(F)F)c1C(=O)NC1CC1 (stereo not drawn) [compound 144, N-cyclopropyl-2-(difluoromethoxy)-6-methoxy-4-[7-[(1-methylpyrrolidin-3-yl)methoxy]imidazo[1,2-a]pyridin-3-yl]benzamide] | 7.00 to 8.00 | 8.00 to 11.00 | 8.00 to 11.00
COc1cc(-c2cnc3cc(OCCCN4CCCCC4)ccn23)cc(OC(F)F)c1C(=O)N1CC(C#N)C1 [Cpd 357, 1-[2-(difluoromethoxy)-6-methoxy-4-[7-[3-(1-piperidyl)propoxy]imidazo[1,2-a]pyridin-3-yl]benzoyl]azetidine-3-carbonitrile] | 7.00 to 8.00 | 8.00 to 11.00 | 8.00 to 11.00
